{"source": "patent US20220339134A1", "about": "“VERY-LONG-CHAIN POLYUNSATURATED FATTY ACIDS, ELOVANOID HYDROXYLATED DERIVATIVES, AND METHODS OF USE” (Board of Supervisors of Louisiana State University and …, priority 2019, published 2022)", "tested_on": "RPE and PRC", "experiment": "Subretinal injection of OAβ in WT mice +/- ELVs (RPE flat mount, OCT, qPCR, Western blot)", "type": "in vivo", "details": "for OAβ-activated senescence program (p16INK4a, MMP1, p53, p21, p27, Il-6, SASP secretome) followed by RPE and PRC demise: summary of mouse and human RPE data", "excerpt": "(A) In vivo experimental design: 6-month-old C57BL/6J WT mice were divided into 7 groups (n=12/group): non-injected, PBS, OAβ only, OAβ+ELV-N-32, OAβ+ELV-N-34, ELV-N-32 only and ELV-N-34 only. On day 3, mRNA were isolated for Real-Time PCR. On day 7, mice were subjected to OCT and then eyes enucleated and processed for whole mount RPE staining and Western blots. (B) Whole flat mount of RPE with tight junction marker, Zonula occludens-1 (ZO-1) antibody. OAβ disrupted RPE morphology. (C) OAβ effects on retina and RPE by OCT. (D) Thickness of PRC layer was thinner in OAβ injected group. (E) RPE gene expression after Oaβ (1-42) injection and treatment with ELVs. (E-G) Gene expression in the same functional group were plotted. Senescence- and AMD-related genes (E), and collagenases, gelatinase, stromelysins and others matrix metalloproteinases (MMP) (F) and autophagy (G). (H) p16INK4a, a key marker for senescence, western blots of RPE. (I) Retina apoptosis gene expression after OAβ (1-42) injection and treatment with ELVs. (*P<0.05, student t-test).\nELVs restore RPE morphology and reduce gene expression after subretinal injection of OAβ in WT mice. (A) Mice were divided into 7 groups: non-injected, PBS, OAβ only, OAβ+ELV-N-32, OAβ+ELV-N-34, ELV-N-32 only and ELV-N-34 only. On day 3, mRNA were isolated for RT-PCR. On day 7, mice were subjected to OCT and then eyes were enucleated and processed to whole mount RPE staining and Western blot. (B) Whole flat mount of RPE. OAβ disrupted RPE morphology. However, RPE were less damage in the ELVs treatment group as well as PBS, ELVs alone did non induce changes. (C) Evaluation the OAβ effects on retina and RPE by OCT. (D) The thickness of PRC was thin in the OAβ injected group. OAβ cause the cell death of PRC, as the thinner in OCT measurement. (E) RPE gene expression after OAβ (1-42) injection and treatment with ELVs. 3 days after injection, the RNAs from RPE were isolated, reverse transcribed into cDNA and subjected to RT-PCR with different primers. Genes in the same functional group were plotted in the same chart, including senescence- and AMD-related genes (E), and collagenases, gelatinase, stromelysins and others matrix metalloproteinases (MMP) (F) and autophagy (G). (H) p16INK4a western blots of RPE/Choroid. […] (I) Retina gene expression after OAβ (1-42) injection and treatment with ELVs. OAβ activates apoptosis genes in the retina. […] (*P<0.05, using student t-test comparison).\nAll animal experiments were performed according to ARVO Statement for the Use of Animals in Ophthalmic and Vision Research, and the protocol was approved by LSU Health New Orleans' Institutional Animal Care and Use Committee (IACUC). 6-month-old 5×FAD mice (stock number: 34848-JAX, The Jackson Laboratory, Bar Harbor, Me., USA), co-overexpress FAD mutant forms of human amyloid precursor protein (the Swedish mutation: K670N, M671L; the Florida mutation: I716V; and the London mutation: V7171) and presenilin 1 (PS1, encoded by Psen1: M146L, L286V) transgenes under transcriptional control of the neuron-specific mouse Thy1 promoter. 5×FAD mice were hemizygotes with respect to the transgenes and non-transgenic WT littermates. Genotyping was performed by PCR of tail DNA. All analyses were carried out blind with respect to the mice genotype. For the subretinal injection, 6-month-old C57BL/6J mice were anesthetized by an intraperitoneal injection of ketamine/xylazine, pupils dilated with 1.0% tropicamide (Akorn, Ill., USA); and 0.5% Proparacaine Hydrochloride (Akorn) was applied for topical anesthesia. Eyes were punctured with a 30-gauge needle between the corneoscleral junction and the ora serrata into the vitreous cavity without disturbing the lens. Compounds were delivered to the subretinal region using a 33-gauge blunt needle attached to a 5p.1 Hamilton syringe (Hamilton Company, Reno, Nev., USA) under a dissecting microscope. Non-injected mice were used as negative control while the PBS injected mice were used for sham. […]", "key": {"[1]": {"details": "co-injected with OAβ subretinally, then topical ELV, day 7"}}}
{"smiles": "CC/C=C\\C[C@H](O)\\C=C/C=C/C=C/[C@H](O)C/C=C\\C/C=C\\CCCCCCCCCCCCCCC(=O)O", "note": "[ELV-N-34]", "values": [{"measurement": "PRC degeneration / ONL after ELV injected alone", "setting": "ELV alone, no OAβ, subretinal", "result": "did not yield PRC degeneration"}, {"measurement": "PRC protection (PRC layer, OCT)", "setting": "[1]", "result": "protection of PRC"}, {"measurement": "RPE morphology (ZO-1 whole flat mount)", "setting": "[1]", "result": "restoration of RPE morphology"}, {"measurement": "p16INK4a protein (western blot of RPE/Choroid)", "setting": "elevated by OAβ injection, day 7", "result": "down regulated"}, {"measurement": "OAβ-activated senescence program (p16INK4a, MMP1, p53, p21, p27, Il-6, SASP secretome) followed by RPE and PRC demise", "result": "blunt these events and elicit protection to both cells"}, {"measurement": "OAβ-activated senescence program (p16INK4a, MMP1, p53, p21, p27, Il-6, SASP secretome) followed by RPE and PRC demise", "setting": "listed as ELV 34", "result": "downregulatory mediators of OAβ-evoked senescence"}, {"measurement": "OAβ-activated senescence program (p16INK4a, MMP1, p53, p21, p27, Il-6, SASP secretome) followed by RPE and PRC demise", "setting": "listed as elovanoid 34", "result": "blunt these events and elicits protection"}]}
